Data set [1] deals with T1, Farnesyl protein transferase (FPT) (Homo sapiens, UniProt P49354+P49356).
T1 construct: partially purified from human placenta by ammonium sulphate fractionation; from tissue; host or cells: human placenta
As to the kind of experiment: Farnesyl protein transferase (FPT) inhibition, tritiated farnesyl pyrophosphate incorporation into Kras (CVIM). The format is biochemical. As to conditions: FPT partially purified from human placenta; 300 nM tritiated farnesyl pyrophosphate, 120 nM ras-CVIM, 20 minutes at 37°. As for the experimental part:
Biological activity was tested as follows. Farnesyl protein transferase (FPT) was partially purified from human placenta by ammonium sulphate fractionation followed by a single Q-Sepharose™ (Pharmacia, Inc) anion exchange chromatography essentially as described by Ray and Lopez-Belmonte (Ray K P and Lopez-Belmonte J (1992) Biochemical Society Transations 20 494-497). The substrate for FPT was Kras (CVIM C-terminal sequence). The cDNA for oncogenic va112 variant of human c-Ki-ras-2 4B was obtained from the plasmid pSW11-1 (ATCC). This was then subcloned into the polylinker of a suitable expression vector e.g. pIC147, The Kras was obtained after expression in the E. coli strain, BL21. The expression and purification of c-KI-ras-2 4B and the val12 variant in E. coli has also been reported by Lowe et al (Lowe P N et al. J. Biol. Chem. (1991) 266 1672-1678).
Incubations with enzyme contained 300 nM tritiated farnesyl pyrophosphate (DuPont/New England Nuclear), 120 nM ras-CVIM, 50 mM Tris HCl pH 8.0, 5 mM MgCl2, 10 μM ZnCl2, 5 mM dithiotheitol and compounds were added at appropriate concentrations in DMSO (3% final concentration in test and vehicle control). […] Precipitated protein was then collected onto glass fibre filter mats (B) using a Tomtec™ cell harvester and tritiated label was measured in a Wallac™ 1204 Betaplate scintillation counter.

Among the data in patent publication US6414145B1, “Imidazolyl compounds as inhibitors of farnesyl-protein tranferase” (Zeneca Limited, priority 1997, dated 2002) are melting point and IC50 values, retold here.

For orientation: melting point means the temperature, or range, at which the solid turns liquid. The compound `CSCC[C@H](NC(=O)c1cccc(/C=C(\Cn2ccnc2)c2ccc(F)cc2)c1)C(=O)O` [Example 3, (2S)-2-{3-[(Z)-2-(4-fluorophenyl)-3-(imidazol-1-yl)-prop-1-enyl]-benzamido}-4-methylsulfanylbutyric acid] showed a melting point of 98 to 100 °C. In general, IC50 refers to the midpoint of a concentration-inhibition curve. The low end stands for greater potency in that assay, the high end for weaker potency in that assay. Regarding `CSCC[C@H](NC(=O)c1ccc(/C=C(\c2ccccc2)C(C)n2ccnc2)cc1)C(=O)O` (stereo partly drawn) [Example 6, (2S)-2-{4-[(E)-3-(imidazol-1-yl)-3-methyl-2-phenyl-prop-1-enyl]-benzamido}-4-methylsulfanylbutyric acid], the 50% inhibitory concentration (IC50) in data set [1] is roughly 150 nM. Take `CSCC[C@H](NC(=O)c1ccc(/C=C(/Cn2ccnc2)c2ccc(F)cc2)cc1)C(=O)O` [Example 12, (2S)-2-{4-[(E)-2-(4-Fluorophenyl)-3-(imidazol-1-yl)-prop-1-en-1-yl]benzamido}-4-methylsulfanylbutyric acid]: the melting point was 106 °C.
